Measured values reported in patent US9717745B2, “Pharmaceutical compositions and their use for treatment of cancer and autoimmune diseases” (ZHEJIANG DTRM BIOPHARMA CO. LTD., priority 2015, dated 2017).
Where two headings read alike, the source gives them in different places. Marks after values point to notes of the source that are not given here.

Assays:
TMD-8 tumor cells = experiment: Inhibition of tumor growth in vivo, TMD-8 lymphoma xenograft SCID mouse model; details: TMD-8 mice model, oral
Protocol: (§1) Inhibition Study of Tumor Growth In Vivo:
(§2) SCID mice or nude mice (weighing about 18 g at the beginning of the experiment) were randomly divided into groups by the software in order to achieve close average weights between groups and control the bias within the allowable range. The mice were injected BTK cell lines (TMD-8, WSU-DLCL2 and DoHH-2) for tumor formation. Inhibitors were administered orally once or twice a day, a total of 14 days, 21 days or 28 days. Body weights and tumor volume were recorded.
(§3) Xenograft Tumor Models Inoculated with TMD-8, or DoHH2, or WSU-DLCL2 Tumor Cell Lines:
TMD-8 is a sensitive human diffuse large B-cell lymphoma cell line, and DoHH2 is a more difficult to treat human follicular lymphoma cell line, while WSU-DLCL2 is a multi-drug resistant (MDR) human non-Hodgkin's lymphoma cell line. Drug combination therapies provide better efficacies in all three tumor models than single targeted agent alone.
The TMD-8, DoHH2, WSU-DLCL2 tumor cells were maintained in vitro as a suspension culture in RPMI-1640 medium supplemented with 10% heat inactivated fetal calf serum at 37° C. in an atmosphere of 5% CO2 in air. The tumor cells were routinely subcultured twice weekly. The cells growing in an exponential growth phase were harvested and counted for tumor inoculation. Each mouse was inoculated subcutaneously at the right flank with the tumor cells (10×10^6) in 0.2 ml of PBS with Matrigel (1:1) for tumor development. The treatments were started after the average tumor size reached approximately 100-200 mm^3. Each group consisted of 6-10 tumor-bearing mice. The testing article (vehicle, compound or combination) was orally administrated to the mice according to the predetermined doses for 14-days or 21-days. Animal body weight and tumor volume were measured every 2- or 3-days throughout the treatment.

[1] = Collagen-induced arthritis (CIA) model in male DBA/1 mice; assay type: in vivo; set-up: scale not given here; details: CIA study, 14 alone, 0.15 mg/kg QD, Mean ± SEM
[2] = Adjuvant-induced arthritis (AA/AIA) model in female Lewis rats; assay type: in vivo; details: for Paw volume of AA rats model (in words): FIG. 13; for Paw volume (Mean): 11 (3 mg/kg) BID positive control, oral from day 13
Protocol: Adjuvant-Induced Arthritis AA Model:
The combination of Compounds 3 and 14 was evaluated in adjuvant-induced arthritis (AA) model in female Lewis rats. All rats except the normal group were immunized with complete Freund's adjuvant (CFA) subcutaneously at the left hind paw to induce arthritis at day 0. At 6 days post immunization, some rats started to display clinical symptoms of arthritis, e.g. erythema and swelling. […] The treatments were given orally for 3 consecutive weeks. The body weight, paw volume and clinical score were monitored every other day after day 13 throughout the course of the study. At the terminal point, right hind paws were collected for histopathology analysis with H.E. staining.

[3] = Collagen-induced arthritis (CIA) model in male DBA/1 mice; assay type: in vivo; set-up: Clinical Score (Mean) / Pathological score: Inflammatory cell infiltration / Pathological score: Pannus growth / Pathological score: Cartilage injury / Pathological score: Bone resorption / Pathological score: Total: scale not given here; details: for Clinical score of CIA mice model (in words): FIG. 15; for Clinical Score (Mean): Dexamethasone 0.2 mg/kg
Protocol: Collagen-Induced Arthritis (CIA) Model:
The combination of Compounds 3 and 12 was evaluated in collagen induced arthritis (CIA) mouse model in Male DBA/1 mice. The animals were divided into 8 groups, including a normal, a vehicle, […] treatment groups: All animals (except the normal group) were immunized with 200 μg of bovine collagen (type II) on day 0 and day 21. Seven days (day 28) after boosting immunization, animals started to show symptoms of disease with an average clinical score around 1. […] The treatments were given orally for 2 consecutive weeks. Body weight and clinical score were monitored through the study (recorded three times a week started after second immunization). At the end of the study, animals were euthanized and both hind paws were collected for histopathology analysis.

TMD-8 cell line = experiment: Inhibition assay of tumor cell activity (cell viability), TMD-8; assay type: cell-based, human; details: 48 hours incubation
Protocol: Inhibition Assay of Tumor Cell Activity:
Tumor cells (TMD-8, DoHH2 and WSU-DLCL2) were transferred and attached to 96-well plates. After one night, blank buffer and selected concentrations (0.01 nM-100 μM) of the test compound solution were added. After 48 hours incubation, CellTiter-Go was added to lyse the cells. Recording luminescent signal and calculate the percent inhibition of cell viability.

WSU-DLCL2 tumor cells [4] = details: oral gavage to mice, 480 mg/kg/day, Knutson et al. 2014, cited from earlier work
WSU-DLCL2 tumor cells [5] = experiment: Inhibition of tumor growth in vivo, resistant WSU-DLCL2 xenograft SCID mouse model; set-up: species or system mice; details: FIG. 8
Protocol: as §1, §2, §3
TMD-8 is a sensitive human diffuse large B-cell lymphoma cell line, and DoHH2 is a more difficult to treat human follicular lymphoma cell line, while WSU-DLCL2 is a multi-drug resistant (MDR) human non-Hodgkin's lymphoma cell line.
The TMD-8, DoHH2, WSU-DLCL2 tumor cells were maintained in vitro as a suspension culture in RPMI-1640 medium supplemented with 10% heat inactivated fetal calf serum at 37° C. in an atmosphere of 5% CO2 in air. The tumor cells were routinely subcultured twice weekly. The cells growing in an exponential growth phase were harvested and counted for tumor inoculation. […] Animal body weight and tumor volume were measured every 2- or 3-days throughout the treatment.

[6] = AA study, 11, 3 mg/kg, Mean ± SEM
[7] = CIA study, Left hind paw, Dexamethasone 0.2 mg/kg QD, Mean ± SEM
[8] = CIA study, Right hind paw, Dexamethasone 0.2 mg/kg QD, Mean ± SEM

CO[C@H]1C[C@@H]2CC[C@@H](C)[C@@](O)(O2)C(=O)C(=O)N2CCCC[C@H]2C(=O)O[C@H]([C@H](C)C[C@@H]2CC[C@@H](OCCO)[C@H](OC)C2)CC(=O)[C@H](C)/C=C(\C)[C@@H](O)[C@@H](OC)C(=O)[C@H](C)C[C@H](C)/C=C/C=C/C=C/1C [Compound 14, Everolimus]
Days of treatment to tumor disappearance / complete tumor regression (TMD-8 tumor cells): 15 days
Tumor disappearance (in words) (TMD-8 tumor cells): complete disappearance of tumor grafts
Tumor rebound after treatment was stopped (TMD-8 tumor cells): tumor rebounded
Tumor rebound after treatment was stopped (TMD-8 tumor cells; listed as Everolimus): quickly rebounded
Pathological score: Bone resorption ([1]; Left hind paw): 1.80 ± 0.61
Pathological score: Bone resorption ([1]; Right hind paw): 2.00 ± 0.67
Pathological score: Bone resorption ([2]; AA study, 14 alone, 0.5 mg/kg, Mean ± SEM): 3.5 ± 0.17
Paw volume of AA rats model (in words) [2]: treatment effects are absent
Clinical score of CIA mice model (in words) [3]: treatment effects are absent

CN(Cc1cnc2nc(N)nc(N)c2n1)c1ccc(C(=O)N[C@@H](CCC(=O)O)C(=O)O)cc1 [Compound 18, Methotrexate]
Inhibition of individual compound on TMD-8 cell line (Inh %) AVG (TMD-8 cell line; 0.01 uM): −8.45%
Inhibition of individual compound on TMD-8 cell line (Inh %) AVG (TMD-8 cell line; 0.1 uM): 32.04%
Inhibition of individual compound on TMD-8 cell line (Inh %) AVG (TMD-8 cell line; 1 uM): 39.55%

CCN(c1cc(-c2ccc(CN3CCOCC3)cc2)cc(C(=O)NCc2c(C)cc(C)[nH]c2=O)c1C)C1CCOCC1 [EPZ-6438]
Tumor growth inhibition in WSU-DLCL tumor model (in words) (WSU-DLCL2 tumor cells [4]): achieved a similar effect
Tumor growth inhibition in WSU-DLCL tumor model (in words) (WSU-DLCL2 tumor cells [4]; listed as EZ-6438): inhibited tumor growth

C=CC(=O)N1CC[C@@H](n2nc(-c3ccc(Oc4c(F)c(F)cc(F)c4F)cc3F)c3c(N)ncnc32)C1 [Compound 3, 1-((R)-3-(4-amino-3-(2-fluoro-4-(2,3,5,6-tetrafluorophenoxy)phenyl)-1H-pyrazolo[3,4-d]pyrimidin-1-yl)pyrrolidin-1-yl)prop-2-en-1-one]
Efficacy in WSU-DLCL2 non-Hodgkin's lymphoma mice model (in words) (WSU-DLCL2 tumor cells [5]): in line with the efficacy of Ibrutinib
Paw volume of AA rats model (in words) [2]: treatment effects are absent
Clinical score of CIA mice model (in words) [3]: treatment effects are absent

C[C@@H]1CCN(C(=O)CC#N)C[C@@H]1N(C)c1ncnc2[nH]ccc12 [Compound 11, Tofactinib]
Inhibition of individual compound on TMD-8 cell line (Inh %) AVG (TMD-8 cell line; 0.01 uM): 6.02%
Inhibition of individual compound on TMD-8 cell line (Inh %) AVG (TMD-8 cell line; 0.1 uM): 1.31%
Inhibition of individual compound on TMD-8 cell line (Inh %) AVG (TMD-8 cell line; 1 uM): 6.66%
Pathological score: Bone resorption [2, 6]: 0.5 ± 0.22
Pathological score: Cartilage injury [2, 6]: 0.2 ± 0.20
Pathological score: Inflammatory cell infiltration [2, 6]: 1.9 ± 0.18
Pathological score: Pannus growth [2, 6]: 0.4 ± 0.22
Pathological score: Total [2, 6]: 3.0 ± 0.73
Paw volume (Mean) ([2]; Day 0): 1.00 mL
Paw volume (Mean) ([2]; Day 17): 1.54*** mL
Paw volume (Mean) ([2]; Day 26): 1.37*** mL
Paw volume (Mean) ([2]; Day 28): 1.33*** mL
Paw volume (Mean) ([2]; Day 31): 1.23*** mL
Paw volume (Mean) ([2]; Day 33): 1.23*** mL

C[C@@H]1C[C@H]2[C@@H]3CCC4=CC(=O)C=C[C@]4(C)[C@@]3(F)[C@@H](O)C[C@]2(C)[C@@]1(O)C(=O)CO [Dexamethasone]
Pathological score: Total ([3]; CIA study, Dexamethasone 0.2 mg/kg QD, Mean ± SEM): 0.00 ± 0.00
Pathological score: Bone resorption [3, 7]: 0.00 ± 0.00
Pathological score: Cartilage injury [3, 7]: 0.00 ± 0.00
Pathological score: Inflammatory cell infiltration [3, 7]: 0.00 ± 0.00
Pathological score: Pannus growth [3, 7]: 0.00 ± 0.00
Pathological score: Bone resorption [3, 8]: 0.00 ± 0.00
Pathological score: Cartilage injury [3, 8]: 0.00 ± 0.00
Pathological score: Inflammatory cell infiltration [3, 8]: 0.00 ± 0.00
Pathological score: Pannus growth [3, 8]: 0.00 ± 0.00
Clinical Score (Mean) ([3]; CIA study, day 21 after first immunization): 0.00
Clinical Score (Mean) ([3]; CIA study, day 32): 0.60***
Clinical Score (Mean) ([3]; CIA study, day 39): 0.40***
Clinical Score (Mean) ([3]; CIA study, day 42): 0.20***
